Target: T1, m7GpppX diphosphatase (Homo sapiens, UniProt Q96C86)
T1 sequence (Q96C86 whole entry): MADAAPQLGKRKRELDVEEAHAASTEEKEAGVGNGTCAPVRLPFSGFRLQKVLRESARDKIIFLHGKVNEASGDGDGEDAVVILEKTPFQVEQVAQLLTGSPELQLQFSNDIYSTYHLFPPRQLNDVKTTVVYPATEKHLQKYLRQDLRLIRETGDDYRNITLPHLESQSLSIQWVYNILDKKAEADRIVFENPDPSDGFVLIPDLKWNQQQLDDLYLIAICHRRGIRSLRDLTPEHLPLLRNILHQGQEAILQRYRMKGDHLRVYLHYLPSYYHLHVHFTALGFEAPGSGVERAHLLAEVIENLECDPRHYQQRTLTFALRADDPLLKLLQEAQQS
Test: Biochemical Assay
From the text: In vitro biochemical assay using scavenger decapping enzyme (DcpS) as a target and cell based assay using SMN2 b-lactamase NSC-34 cell reporter gene.

Row | EC50 [nM] | IC50 [nM] | Structure (SMILES)
1 | 243 |  | Nc1nc(N)c2c(COc3ccccc3I)cccc2n1 [D153215]
2 | 2540 | 339 | CC(=O)Nc1nc(CN2CCC(COc3cccc4nc(N)nc(N)c34)CC2)cs1 [D156676]
3 | 921 |  | Nc1nc(N)c2c(OCC3CCN(CC4CCNCC4)CC3)cccc2n1 [D157554]
4 | 108 | 9.38 | Cn1ccnc1CN1CCC(COc2cccc3nc(N)nc(N)c23)CC1 [D157555]
5 | 795 | 101 | Nc1nc(N)c2c(OCC3CCN(c4ccccc4Cl)CC3)cccc2n1 [D158885]
6 | 223 | 23.4 | Nc1nc(N)c2c(OCC3CCN(CC(F)(F)F)CC3)cccc2n1 [D158963]
